According to patent publication US5047228A, “Nonionic 5-C-substituted 2,4,6-triiodoisophthalic acid derivatives” (Schering Aktiengesellschaft, priority 1980, dated 1991):

Columns and labels:
dog erythrocytes = test: Erythrocyte damage (echinocyte formation in dog erythrocytes); format: cell-based; conditions: effect of metrizamide set at 10 as a standard, smaller number = higher compatibility
Experimental: The deformation of erythrocytes (erythrocyte damage) due to X-ray contrast media can be taken as a measure for the membrane-damaging effect of the compound. In this instance, the formation of echinocytes was measured in dog erythrocytes, setting the effect of metrizamide at 10 as a standard. A smaller number signifies a correspondingly higher compatibility.

[1] = Stability in heat sterilization; format: physicochemical
Source text: The present invention comprises nonionic X-ray contrast media based on the opacifying compounds of this invention with novel basic structures. These novel opacifying compounds are distinguished by a number of advantages. They are derived from triiodinated aromatic basic components which themselves are hydrophilic and nontoxic. […] They are also distinguished by a high chemical stability, especially also under the conditions of heat sterilization.
Solutions of the compounds of this invention can thus also be sterilized in the usual way by heating to 120° C. at a physiological pH value. The solutions have a low osmotic pressure even at high iodine concentrations, compared with the state of the art ionic X-ray contrast media. This is especially a prerequisite for a good local compatibility.

LD50 rat (i.v.) = conditions: in vivo, iv, injection rate 2 ml/min, concentration 300 mg/ml, observation period 24 h
Experimental: (§1) *Injection rate 2 ml/min; concentration 300 mg/ml; observation period 24

Iodine content = format: physicochemical
[2] = Distribution coefficient butanol/buffer pH 7.6; format: physicochemical
Source text: The distribution coefficient of a compound permits ascertainment of its hydrophilicity and thus its compatibility; the lower the value of the distribution coefficient, the higher the compatibility of the compound tested.

LD50 mouse (i.v.) = conditions: in vivo, iv, injection rate 2 ml/min, concentration 300 mg/ml, observation period 24 h
Experimental: as §1

| Structure (SMILES) | Erythrocyte Damage (dog erythrocytes) | Stable in Heat Sterilization [1] | LD50 at 24 h (LD50 rat (i.v.)) [mg/kg] | Iodine Content (Iodine content) [%] | Distribution Coefficient Butanol/Buffer pH 7.6 [2] | LD50 at 24 h (LD50 mouse (i.v.)) [mg/kg] |
| --- | --- | --- | --- | --- | --- | --- |
| O=C(c1c(I)c(C(=O)N(CCO)CCO)c(I)c(C(=O)N(CCO)CCO)c1I)N(CCO)CCO [C, 2,4,6-triiodobenzene-1,3,5-tricarboxylic acid tris(bis-2-hydroxyethyl)triamide] | 1.8 | Yes | 12000 | 45 | 0.131 | – |
| CNC(=O)c1c(I)c(C(=O)NC(CO)C(O)CO)c(I)c(C(=O)NC(CO)C(O)CO)c1I (stereo not drawn) [G, 5-N-methylcarbamoyl-2,4,6-triiodoisophthalic acid bis(2,3-dihydroxy-1-hydroxymethylpropyl)diamide] | 2.8 | Yes | 19000 | 47 | 0.065 | – |
| CC(=O)Nc1c(I)c(C(=O)N[C@H]2C(O)O[C@H](CO)[C@@H](O)[C@@H]2O)c(I)c(N(C)C(C)=O)c1I (stereo partly drawn) [A, reference compound] | 10 | No | 11000 | 48 | 0.259 | 12000 |
| CN(CC(O)CO)C(=O)c1c(I)c(C(=O)N(C)CC(O)CO)c(I)c(C(=O)N(C)CC(O)CO)c1I (stereo not drawn) [B, 2,4,6-triiodobenzene-1,3,5-tricarboxylic acid tris(2,3-dihydroxypropyl-N-methyl)triamide] | 2.1 | Yes | 11000 | 45 | 0.064 | 16000 |
| CN(CC(O)CO)C(=O)c1c(I)c(C(N)=O)c(I)c(C(=O)N(C)CC(O)CO)c1I (stereo not drawn) [D, 2,4,6-triiodobenzene-1,3,5-tricarboxylic acid bis(2,3-dihydroxypropyl-N-methyl)triamide] | 4.2 | Yes | – | 50 | 0.074 | – |
| CN(CC(O)C(O)C(O)C(O)CO)C(=O)c1c(I)c(C(=O)N(C)CC(O)C(O)C(O)C(O)CO)c(I)c(C(=O)N(C)CC(O)C(O)C(O)C(O)CO)c1I (stereo not drawn) [E, 2,4,6-triiodobenzene-1,3,5-tricarboxylic acid tris(2,3,4,5,6-pentahydroxyhexyl-N-methyl)triamide] | < 0.3 | Yes | – | 34 | < 0.001 | – |
| CN(C)C(=O)c1c(I)c(C(=O)NCC(O)CO)c(I)c(C(=O)NCC(O)CO)c1I (stereo not drawn) [F, 2,4,6-triiodobenzene-1,3,5-tricarboxylic acid [(N,N-dimethyl)-bis(2,3-dihydroxypropyl)]-triamide] | 2.7 | Yes | 11000 | 50 | 0.171 | 14000 |
